The subject of one data set is interferon (α). Kind of data set: Cytokine Induction in Human Cells: interferon (α) secreted by PBMCs, ELISA. In kind it is cell-based. The note with it: PBMC, incubated 18 to 24 hours, lowest concentration found to induce interferon. An excerpt:
(§1) An in vitro human blood cell system is used to assess cytokine induction. Activity is based on the measurement of interferon and tumor necrosis factor (α) (IFN and TNF, respectively) secreted into culture media as described by Testerman et. al. In “Cytokine Induction by the Immunomodulators Imiquimod and S-27609”, Journal of Leukocyte Biology, 58, 365-372 (September, 1995).
(§2) Whole blood from healthy human donors is collected by venipuncture into EDTA vacutainer tubes. Peripheral blood mononuclear cells (PBMCs) are separated from whole blood by density gradient centrifugation using Histopaque®-1077. The PBMCs are washed twice with Hank's Balanced Salts Solution and then are suspended at 3-4×10^6 cells/mL in RPMI complete. The PBMC suspension is added to 48 well flat bottom sterile tissue culture plates (Costar, Cambridge, Mass. or Becton Dickinson Labware, Lincoln Park, N.J.) containing an equal volume of RPMI complete media containing test compound.
(§3) The compounds are solubilized in dimethyl sulfoxide (DMSO). The DMSO concentration should not exceed a final concentration of 1% for addition to the culture wells
(§4) The solution of test compound is added at 60 μM to the first well containing RPMI complete and serial 3 fold dilutions are made in the wells. The PBMC suspension is then added to the wells in an equal volume, bringing the test compound concentrations to the desired range (0.12 to 30 μM). The final concentration of PBMC suspension is 1.5-2×10^6 cells/mL. The plates are covered with sterile plastic lids, mixed gently and then incubated for 18 to 24 hours at 37° C. in a 5% carbon dioxide atmosphere.
(§5) Following incubation the plates are centrifuged for 5-10 minutes at 1000 rpm (˜200×g) at 4° C. The cell-free culture supernatant is removed with a sterile polypropylene pipet and transferred to sterile polypropylene tubes. Samples are maintained at −30 to −70° C. until analysis. The samples are analyzed for interferon (α) and for tumor necrosis factor (α) by ELISA.
Interferon (α) concentration is determined by ELISA using a Human Multi-Species kit from PBL Biomedical Laboratories, New Brunswick, N.J. Results are expressed in pg/mL.
(§6) The table below lists the lowest concentration found to induce interferon and the lowest concentration found to induce tumor necrosis factor for each compound.
In general terms: In an ELISA, binding on a coated surface is turned into a signal by an enzyme label.

In data set [1] the test system is tumor necrosis factor (α). Kind of data set: Cytokine Induction in Human Cells: tumor necrosis factor (α) secreted by PBMCs, ELISA. The format is cell-based. Also noted: key to Lowest Effective Concentration (μM) Tumor Necrosis Factor: A “*” indicates that no induction was seen at any of the tested concentrations; generally the highest tested concentration was 10 or 30 μM. Conditions: incubated 18 to 24 hours, lowest concentration found to induce tumor necrosis factor; for minimal effective concentration: PBMC.
Description: as §1, §2, §3, §4, §5
Tumor necrosis factor (α) (TNF)concentration is determined using ELISA kits available from Genzyme, Cambridge, Mass.; R&D Systems, Minneapolis, Minn.; or Pharmingen, San Diego, Calif. Results are expressed in pg/mL.
as §6

Counter-ions that a name gives are not always drawn.

By minimal effective concentration is commonly meant the smallest amount tested that counted as effective. Usually melting point stands for the temperature, or range, at which the solid turns liquid.

With `Nc1nc2ccccc2c2c1ncn2CCOCC#Cc1cccs1` [Example 30, 1-{2-[(3-thien-2-ylprop-2-ynyl)oxy]ethyl}-1H-imidazo[4,5-c]quinolin-4-amine], the melting point fell in the range of 148 to 150 °C. The minimal effective concentration with interferon (α) stood at 0.37 µM. The same molecule displayed a minimal effective concentration in data set [1] of 3.33 µM.
In the same order, the values of `Nc1nc2ccccc2c2c1ncn2CCOCc1ccncc1` [Example 15, 1-[2-(Pyridin-4-ylmethoxy)ethyl]-1H-imidazo[4,5-c]quinolin-4-amine] are 159 to 161 °C, 1.11 µM and 3.33 µM.
As for `Nc1nc2ccccc2c2c1ncn2CCOCCCc1ncccn1` [Example 4, 1-[2-(3-Pyrimidin-2-ylpropoxy)ethyl]-1H-imidazo[4,5-c]quinolin-4-amine], the melting point lay within 126 to 127 °C. The minimal effective concentration in the data set with interferon (α) was found to be 3.33 µM. Also, the “Lowest Effective Concentration (μM) Tumor Necrosis Factor” value in data set [1] is reported as “*”.
`Cc1nc2c(N)nc3ccccc3c2n1CCOCCCc1cccnc1` [Example 34, 2-Methyl-1-[2-(3-pyridin-3-ylpropoxy)ethyl]-1H-imidazo[4,5-c]quinoline-4-amine] showed a melting point of 145 to 146 °C. In the data set with interferon (α), this molecule had a minimal effective concentration of 0.01 µM. Also, in data set [1], the minimal effective concentration was found to be 0.04 µM.
As for `Cn1c(COCCn2cnc3c(N)nc4ccccc4c32)cc2ccccc21` [Example 31, 1-{2-[(1-methyl-1H-indol-2-yl)methoxy]ethyl}-1H-imidazo[4,5-c]quinolin-4-amine], the melting point was 243 to 245 °C. The molecule further had a minimal effective concentration with interferon (α) of 3.33 µM. In data set [1], this molecule had a minimal effective concentration of 3.33 µM.
With `Nc1nc2ccccc2c2c1ncn2CCOCc1ccccn1` [Example 14, 1-[2-(Pyridin-2-ylmethoxy)ethyl]-1H-imidazo[4,5-c]quinolin-4-amine], the melting point is 196 to 198 °C. In the data set on interferon (α), this molecule came in with a minimal effective concentration of 0.12 µM. Also, the minimal effective concentration in data set [1] was determined as 0.37 µM.
On to `Nc1nc2ccccc2c2c1ncn2CCOCCCc1ccncc1` [Example 5, 1-[2-(3-Pyridin-4-ylpropoxy)ethyl]-1H-imidazo[4,5-c]quinolin-4-amine], for which the melting point lay within 160 to 162 °C. The molecule also gave a minimal effective concentration in the data set with interferon (α) of 0.04 µM. Also, the minimal effective concentration in data set [1] is 0.37 µM.
In turn, `Nc1nc2ccccc2c2c1ncn2CCOCCCc1nccs1` [Example 7, 1-{2-[3-(1,3-Thiazol-2-yl)propoxy]ethyl}-1H-imidazo[4,5-c]quinolin-4-amine] returned a melting point of 134 to 135 °C. Moreover, the minimal effective concentration in the data set on interferon (α) was 0.37 µM. Besides, in data set [1], the “Lowest Effective Concentration (μM) Tumor Necrosis Factor” value was “*”.
In the case of `Cc1noc(C)c1COCCn1cnc2c(N)nc3ccccc3c21` [Example 16, 1-{2-[(3,5-Dimethylisoxazol-4-yl)methoxy]ethyl}-1H-imidazo[4,5-c]quinolin-4-amine], the melting point fell in the range of 213 to 215 °C. In the data set on interferon (α), this molecule yielded a minimal effective concentration of 3.33 µM. Further, the minimal effective concentration in data set [1] is 10 µM.
Taken in the same sequence, the figures for `Nc1nc2ccccc2c2c1ncn2CCOCC#Cc1nccs1` [Example 2, 1-(2-{[3-(1,3-Thiazol-2-yl)-2-propynyl]oxy}ethyl)-1H-imidazo[4,5-c]quinolin-4-amine] were 157 to 159 °C, 0.37 µM and 10 µM.
As to `Nc1nc2ccccc2c2c1ncn2CCOCC#Cc1ncccn1` (as salt: trifluoroacetate) [Example 17, 1-(2-{[3-(Pyrimidin-2-yl)-2-propynyl]oxy}ethyl)-1H-imidazo[4,5-c]quinolin-4-amine trifluoroacetate], the melting point is 214 to 215 °C.
On to `Nc1nc2ccccc2c2c1ncn2CCOCCCc1ccccn1` [Example 6, 1-[2-(3-Pyridin-2-ylpropoxy)ethyl]-1H-imidazo[4,5-c]quinolin-4-amine], for which the melting point lay in the range of 138 to 140 °C. The minimal effective concentration in the data set on interferon (α) was 0.12 µM. The molecule further returned a minimal effective concentration in data set [1] of 1.11 µM.
Turning to `Nc1nc2ccccc2c2c1ncn2CCOCC#Cc1ccoc1` (as salt: trifluoroacetate) [Example 19, 1-(2-{[3-(Fur-3-yl)-2-propynyl]oxy}ethyl)-1H-imidazo[4,5-c]quinolin-4-amine trifluoroacetate], the melting point lay within 160 to 162 °C.
`Nc1nc2ccccc2c2c1ncn2CCOCCCc1cccs1` [Example 32, 1-[2-(3-thien-2-ylpropoxy)ethyl]-1H-imidazo[4,5-c]quinolin-4-amine] returned a melting point of 130.1 to 131.6 °C. This molecule also displayed a minimal effective concentration with interferon (α) of 0.01 µM. The molecule further returned a minimal effective concentration in data set [1] of 1.11 µM.
In the same order, the values of `Nc1nc2ccccc2c2c1ncn2CCOCc1cn(CSc2ccccc2)nn1` [Example 11, 1-[2-({1-[(Phenylsulfanyl)methyl]-1H-1,2,3-triazol-4-yl}methoxy)ethyl]-1H-imidazo[4,5-c]quinoline-4-amine] are 182 to 184 °C, 1.11 µM and 0.04 µM.

(Values after US6664260B2, “Heterocyclic ether substituted imidazoquinolines” (3M Innovative Properties Company, priority 2000, dated 2003).)
